Assay results taken from patent publication US8399465B2, “Compounds with two fused bicyclic heteroaryl moieties as modulators of leukotriene A4 hydrolase” (Janssen Pharmaceutica NV, priority 2009, dated 2013).
Counter-ions that a name gives are not always drawn.

What was measured:
[1] = tested on: LTB4 production in murine blood (LTA4H); assay: LTB4 production by calcium ionophore-stimulated murine blood for LTA4H inhibitor activity; assay type: cell-based, CD-1 mice; settings: Mus musculus; murine blood diluted 1 in 15, A23187 stimulated; single determination or average; mark after value = form tested: ′ free base, ″ hydrochloride, ^ formate; read-out: IC50
Procedure: Assay 2: LTB4 Production by Calcium Ionophore-Stimulated Murine Blood for LTA4H Inhibitor Activity
CD-1 mice were sacrificed, and blood was collected in heparin-containing syringes by cardiac puncture. […] After the microtiter plate contents were incubated for 15 min at 37° C. in a humidified incubator, calcium ionophore A23187 (Sigma Chemical Co., St. Louis, Mo.) was added to each sample well (final concentration=7 μg/mL). The incubation was continued under the same conditions for an additional 30 min to allow LTB4 formation. The reaction was terminated by centrifugation (833×g, 10 min at 4° C.), and supernatants were analyzed for LTB4 by a commercially available enzyme-linked immunoassay (Cayman Chemical Co.) according to the manufacturer's instructions. Positive controls, under essentially identical conditions but without addition of an inhibitor compound, and negative unstimulated controls, containing all assay components except calcium ionophore, were routinely run in each experiment. […] The values presented here are the result of a single determination or an average of two or more determinations.

[2] = biological target: T1, recombinant human LTA4 hydrolase (rhLTA4H) (Homo sapiens, UniProt P09960); assay: Recombinant human LTA4 hydrolase assay for LTA4 hydrolase inhibitor activity; assay type: biochemical; settings: rhLTA4H, LTB4 by immunoassay; single determination or average of two or more; mark after value = form tested: ′ free base, ″ hydrochloride, ^ formate; read-out: IC50
T1 construct: made in house; host or cells: Spodoptera frugiperda (Sf-9) cells, baculovirus (pFastBac1)
T1 sequence (P09960 1-611): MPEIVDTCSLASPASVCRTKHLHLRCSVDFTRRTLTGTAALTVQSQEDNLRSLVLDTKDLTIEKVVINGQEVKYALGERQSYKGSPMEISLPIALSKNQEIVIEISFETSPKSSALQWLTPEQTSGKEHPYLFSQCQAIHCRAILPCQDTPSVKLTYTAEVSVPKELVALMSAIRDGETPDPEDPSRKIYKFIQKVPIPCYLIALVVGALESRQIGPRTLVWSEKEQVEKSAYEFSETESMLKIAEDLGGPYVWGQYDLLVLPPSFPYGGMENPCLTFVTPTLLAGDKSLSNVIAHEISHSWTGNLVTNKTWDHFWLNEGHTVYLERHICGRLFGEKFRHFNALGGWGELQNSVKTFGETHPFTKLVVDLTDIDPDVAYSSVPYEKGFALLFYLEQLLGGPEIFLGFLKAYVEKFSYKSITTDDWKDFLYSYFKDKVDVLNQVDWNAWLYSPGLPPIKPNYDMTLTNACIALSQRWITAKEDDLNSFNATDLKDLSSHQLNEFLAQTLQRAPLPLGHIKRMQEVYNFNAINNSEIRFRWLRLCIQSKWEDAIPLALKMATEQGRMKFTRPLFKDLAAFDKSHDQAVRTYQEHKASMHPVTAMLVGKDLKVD
In short: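 Baculovirus/Sf-9-expressed human LTA4H (10 ng) was preincubated 10 min at rt with compound in assay buffer (10% DMSO in compound dilution), then reacted 30 min at rt with LTA4 free acid made from its methyl ester. LTB4 produced was measured by ELISA after dilution; IC50 from non-linear regression, single or averaged determinations.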

| IC50 [1] [nM] | IC50 [2] [nM] | SMILES |
| --- | --- | --- |
| 230 | 26 | CC(=O)N1C[C@@H]2C[C@H]1CN2Cc1coc2cc(Oc3nc4ccccc4s3)ccc12 [Example 164, (1S,4S)-1-{5-[6-(Benzothiazol-2-yloxy)-benzofuran-3-ylmethyl]-2,5-diaza-bicyclo[2.2.1]hept-2-yl}-ethanone] |
| 23 | 2 | c1cnc2nc(Oc3ccc4c(CN5CCOCC5)c[nH]c4c3)sc2c1 [Example 40, 2-(3-Morpholin-4-ylmethyl-1H-indol-6-yloxy)-thiazolo[4,5-b]pyridine] |
| 290 | 29 | O=C(NCc1coc2cc(Oc3nc4ncccc4s3)ccc12)C1CCC(O)CC1 (centres unmarked) [Example 392, 4-Hydroxy-cyclohexanecarboxylic acid [6-(thiazolo[4,5-b]pyridin-2-yloxy)-benzofuran-3-ylmethyl]-amide] |
| 350 | 17 | COC(=O)c1ccc(CN2C[C@@H]3C[C@H]2CN3Cc2coc3cc(Oc4nc5ncccc5s4)ccc23)cc1 [Example 360, (1S,4S)-4-{5-[6-(Thiazolo[4,5-b]pyridin-2-yloxy)-benzofuran-3-ylmethyl]-2,5-diaza-bicyclo[2.2.1]hept-2-ylmethyl}-benzoic acid methyl ester] |
| 38 | 26 | FC1CCCN(Cc2coc3cc(Oc4nc5ncccc5s4)ccc23)C1 (centres unmarked) [Example 350, 2-[3-(3-Fluoro-piperidin-1-ylmethyl)-benzofuran-6-yloxy]-thiazolo[4,5-b]pyridine] |
| 870 | 21 | O=C(O)C1CCCN(Cc2c[nH]c3cc(Oc4nc5ccccc5s4)ccc23)C1 (centres unmarked) [Example 47, 1-[6-(Benzothiazol-2-yloxy)-1H-indol-3-ylmethyl]-piperidine-3-carboxylic acid] |
| 488 | 97 | NC(=O)C1CCN(Cc2cc3cc(Oc4nc5ccccc5s4)ccc3o2)CC1 [Example 105, 1-[5-(Benzothiazol-2-yloxy)-benzofuran-2-ylmethyl]-piperidine-4-carboxylic acid amide] |
| 295 | 34 | c1ccc2sc(Oc3ccc4cc(CN5CCCCC5)[nH]c4c3)nc2c1 [Example 67, 2-(2-Piperidin-1-ylmethyl-1H-indol-6-yloxy)-benzothiazole] |
| 130 | 44 | c1ccc(CC2CCN(Cc3coc4cc(Oc5nc6ncccc6s5)ccc34)CC2)cc1 [Example 279, 2-[3-(4-Benzyl-piperidin-1-ylmethyl)-benzofuran-6-yloxy]-thiazolo[4,5-b]pyridine] |
| 118 | 2 | NC(=O)C1CCN(Cc2c[nH]c3cc(Oc4nc5ncccc5s4)ccc23)CC1 [Example 17, 1-[6-(Thiazolo[4,5-b]pyridin-2-yloxy)-1H-indol-3-ylmethyl]-piperidine-4-carboxylic acid amide] |
| 120 | 29 | FC1(F)CN(Cc2coc3cc(Oc4nc5ncccc5s4)ccc23)C1 [Example 316, 2-[3-(3,3-Difluoro-azetidin-1-ylmethyl)-benzofuran-6-yloxy]-thiazolo[4,5-b]pyridine] |
| 161 | 5 | NC(=O)C1CCN(Cc2c[nH]c3cc(Oc4nc5ccccc5s4)ccc23)CC1 [Example 21, 1-[6-(Benzothiazol-2-yloxy)-1H-indol-3-ylmethyl]-piperidine-4-carboxylic acid amide] |
| 100 | 34 | CC(C)N(C)C(=O)c1coc2cc(Oc3nc4ncccc4s3)ccc12 [Example 373, 6-(Thiazolo[4,5-b]pyridin-2-yloxy)-benzofuran-3-carboxylic acid isopropyl-methyl-amide] |
| 170 | 40 | COc1ccc(N2CCN(Cc3coc4cc(Oc5nc6ncccc6s5)ccc34)CC2)cc1 [Example 290, 2-{3-[4-(4-Methoxy-phenyl)-piperazin-1-ylmethyl]-benzofuran-6-yloxy}-thiazolo[4,5-b]pyridine formate] |
| 160 | 22 | OC[C@@H]1CCCN1Cc1coc2cc(Oc3nc4ccccc4s3)ccc12 [Example 312, (S)-{1-[6-(Benzothiazol-2-yloxy)-benzofuran-3-ylmethyl]-pyrrolidin-2-yl}-methanol] |
| 320 | 11 | NC(=O)C1CCN(Cc2cc3cc(Oc4nc5ncccc5s4)ccc3o2)CC1 [Example 88, 1-[5-(Thiazolo[4,5-b]pyridin-2-yloxy)-benzofuran-2-ylmethyl]-piperidine-4-carboxylic acid amide] |
| 75 | 11 | O=C1CCCN1C1CCN(Cc2coc3cc(Oc4nc5ccccc5s4)ccc23)CC1 [Example 179, 1-{1-[6-(Benzothiazol-2-yloxy)-benzofuran-3-ylmethyl]-piperidin-4-yl}-pyrrolidin-2-one] |
| 68 | 32 | NC(=O)N1CCC(N(Cc2coc3cc(Oc4nc5ncccc5s4)ccc23)C2CC2)CC1 [Example 242, 4-{Cyclopropyl-[6-(thiazolo[4,5-b]pyridin-2-yloxy)-benzofuran-3-ylmethyl]-amino}-piperidine-1-carboxylic acid amide] |
| 81 | 2 | O=C1CCCN1C1CCN(Cc2c[nH]c3cc(Oc4nc5ncccc5s4)ccc23)CC1 [Example 20, 1-{1-[6-(Thiazolo[4,5-b]pyridin-2-yloxy)-1H-indol-3-ylmethyl]-piperidin-4-yl}-pyrrolidin-2-one] |
| 200 | 50 | O=C(c1coc2cc(Oc3nc4ncccc4s3)ccc12)N1CCCCC1 [Example 383, Piperidin-1-yl-[6-(thiazolo[4,5-b]pyridin-2-yloxy)-benzofuran-3-yl]-methanone] |

| SMILES | IC50 [1] [nM] | IC50 [2] [nM] |
| --- | --- | --- |
| OC1(c2ccc(Cl)cc2)CCN(Cc2coc3cc(Oc4nc5ncccc5s4)ccc23)CC1 [Example 347, 4-(4-Chloro-phenyl)-1-[6-(thiazolo[4,5-b]pyridin-2-yloxy)-benzofuran-3-ylmethyl]-piperidin-4-ol] | 130 | 24 |
| CC(=O)N1[C@@H]2CC[C@H]1C[C@@H](NCc1coc3cc(Oc4nc5ncccc5s4)ccc13)C2 [Example 332, meso-endo-1-(3-{[6-(Thiazolo[4,5-b]pyridin-2-yloxy)-benzofuran-3-ylmethyl]-amino}-8-aza-bicyclo[3.2.1]oct-8-yl)-ethanone formate] | 100 | 8 |
| CC(=O)N1C[C@H]2CC[C@@H](C1)N2Cc1cc2cc(Oc3nc4cnccc4s3)ccc2o1 [Example 206, meso-1-{8-[5-(Thiazolo[4,5-c]pyridin-2-yloxy)-benzofuran-2-ylmethyl]-3,8-diaza-bicyclo[3.2.1]oct-3-yl}-ethanone] | 340 | 147 |
| CC(=O)N(CC(=O)O)[C@H]1C[C@H]2CC[C@@H](C1)N2Cc1c[nH]c2ccc(Oc3nc4ccccc4s3)cc12 [Example 49, meso-endo-(Acetyl-{8-[5-(benzothiazol-2-yloxy)-1H-indol-3-ylmethyl]-8-aza-bicyclo[3.2.1]oct-3-yl}-amino)-acetic acid] | 10000 | 13 |
| CC(=O)N[C@H]1C[C@H]2CC[C@@H](C1)N2Cc1cc2ccc(Oc3nc4ncccc4s3)cc2[nH]1 [Example 72, meso-endo-N-{8-[6-(Thiazolo[4,5-b]pyridin-2-yloxy)-1H-indol-2-ylmethyl]-8-aza-bicyclo[3.2.1]oct-3-yl}-acetamide] | 100 | 27 |
